Experimental data taken from patent publication US20040002545A1, “Thiazole derivatives of 2-methoxyimino-2-(pyridinyloxymethyl)-phenyl-acetamides useful as fungicides” (priority 2003, published 2004).

How the values were obtained:
Type in all cases: in vivo
Erysiphe graminis—ERYSGT = assay: Wheat powdery mildew greenhouse test, curative and protectant; design: scale not given here; conditions: for ERYSGT 3DC: 3DC (curative); for ERYSGT 7DP: 7DP (protectant)
Text: (§1) Pathogen propagation and host inoculation. Plants were inoculated with various pathogens 1-4 days before compound application (curative tests) and 1-7 days after compound application (protectant tests). For all wheat trials, compounds were applied at growth stage 1.2, when the second leaf was expanded to about ½ of its final size (12 days after seeds were first watered). Information on the growth stages of other plant species at the time compound application and on the propagation and inoculation procedures associated with each pathogen is given below.
ERYSGT: Wheat seedlings were infected with fresh spores from the obligate pathogen ERYSGT by shaking heavily infected wheat plants over them. Plants that had been dusted with ERYSGT spores were incubated in the greenhouse at 22° C. until disease symptoms had fully developed (usually 7 days).

[1] = tested on: Puccinia recondita—PUCCRT; assay: Wheat brown rust greenhouse test, curative and protectant; conditions: for PUCCRT 3DC: 3DC (curative); for PUCCRT 7DP: 7DP (protectant)
Text: as §1
PUCCRT: Spores of the obligate pathogen PUCCRT were collected from infected plants with a vacuum apparatus and stored at 4° C. Approximately 0.1 g of fresh spores (stored at 4° C. for less than 30 days) was mixed with several drops of Tween 20. The thick spore paste was diluted to 100 ml with water and sprayed to run-off on wheat seed seedlings. Plants inoculated with PUCCRT were kept in a 20° C. dew chamber overnight and then transferred to a 20° C. growth chamber where symptoms developed in 8-9 days.

Septoria tritici—SEPTTR = assay: Wheat leaf blotch greenhouse test, curative and protectant; design: scale not given here; conditions: for SEPTTR 3DC: 3DC (curative); for SEPTTR 7DP: 7DP (protectant)
Text: as §1
SEPTTR: Fresh inoculum is prepared in a manner similar to that described for LEPTNO. In this case, a brownish layer of spores covers the entire surface of the PDA plate and only a few plates are needed to obtain a large number of spores. After incubation overnight in the 20° C. dew chamber, inoculated plants were continually misted for 3 days in a 20° C. greenhouse, then grown at 20° C. without mist until disease symptoms had fully developed (usually about 10 days).
(§2) LEPTNO: Fresh inoculum was prepared by streaking PDA plates with spore exudates from an older plate using a sterile spatula. The plates were incubated at 18° C. under black lights and typically produced large quantities of spores in pink exudate in 6-7 days. A small amount of tap water was poured onto several plates and spores were collected by scraping the exudates off the PDA surface into the water. The spore solutions were combined in a large beaker, diluted with 200-300 ml of water and filtered through a 180 u mesh screen. The spore concentration was determined using a hemacytometer and water was added to obtain a final concentration of 10^7 spores/ml. Approximately 3 large drops of Tween 20 were added for each 100 ml of volume and the spore solution was sprayed to run-off on wheat seedlings. Inoculated plants were placed in a 20° C. dew chamber overnight, then moved to a 20° C. greenhouse where they were continually misted (12 seconds of mist every minute) until disease symptoms were fully developed (8-10 days).

Septoria nodorum—LEPTNO = assay: Wheat glume blotch greenhouse test, curative and protectant; design: scale not given here; conditions: for LEPTNO 3DC: 3DC (curative); for LEPTNO 7DP: 7DP (protectant)
Text: as §1, §2

Row | Compound | PUCCRT 3DC ([1]; rate 15.5 g ai/ha) | PUCCRT 7DP ([1]; rate 15.5 g ai/ha) | PUCCRT 3DC ([1]; rate 31.3 g ai/ha) | PUCCRT 7DP ([1]; rate 31.3 g ai/ha) | PUCCRT 3DC ([1]; rate 62.5 g ai/ha) | PUCCRT 7DP ([1]; rate 62.5 g ai/ha) | PUCCRT 3DC ([1]; rate 125 g ai/ha) | PUCCRT 7DP ([1]; rate 125 g ai/ha) | SEPTTR 3DC (Septoria tritici—SEPTTR; rate 15.5 g ai/ha) | SEPTTR 7DP (Septoria tritici—SEPTTR; rate 15.5 g ai/ha) | SEPTTR 3DC (Septoria tritici—SEPTTR; rate 31.3 g ai/ha) | SEPTTR 7DP (Septoria tritici—SEPTTR; rate 31.3 g ai/ha) | SEPTTR 3DC (Septoria tritici—SEPTTR; rate 62.5 g ai/ha) | SEPTTR 7DP (Septoria tritici—SEPTTR; rate 62.5 g ai/ha) | SEPTTR 3DC (Septoria tritici—SEPTTR; rate 125 g ai/ha) | SEPTTR 7DP (Septoria tritici—SEPTTR; rate 125 g ai/ha) | LEPTNO 3DC (Septoria nodorum—LEPTNO; rate 15.5 g ai/ha) | LEPTNO 7DP (Septoria nodorum—LEPTNO; rate 15.5 g ai/ha) | LEPTNO 3DC (Septoria nodorum—LEPTNO; rate 31.3 g ai/ha) | LEPTNO 7DP (Septoria nodorum—LEPTNO; rate 31.3 g ai/ha) | also measured
1 | 2-[[[3-chloro-5-[5-[3-methylisothiazoly]]-2-pyridinyl]-oxy]methyl]-alpha-(methoxyimino)-N-methylbenzeneacetamide [Compound 1] | 93 | 80 | 99 | 94 | 100 | 100 | 100 | 100 | 22 | 53 | 59 | 88 | 85 | 76 | 99 | 91 | 58 | 46 | 60 | 50 | ERYSGT 3DC (Erysiphe graminis—ERYSGT; rate 15.5 g ai/ha): 88; ERYSGT 7DP (Erysiphe graminis—ERYSGT; rate 15.5 g ai/ha): 51; ERYSGT 3DC (Erysiphe graminis—ERYSGT; rate 31.3 g ai/ha): 92; ERYSGT 7DP (Erysiphe graminis—ERYSGT; rate 31.3 g ai/ha): 45; ERYSGT 3DC (Erysiphe graminis—ERYSGT; rate 62.5 g ai/ha): 94; ERYSGT 7DP (Erysiphe graminis—ERYSGT; rate 62.5 g ai/ha): 88; ERYSGT 3DC (Erysiphe graminis—ERYSGT; rate 125 g ai/ha): 97; ERYSGT 7DP (Erysiphe graminis—ERYSGT; rate 125 g ai/ha): 100; LEPTNO 3DC (Septoria nodorum—LEPTNO; rate 62.5 g ai/ha): 53; LEPTNO 7DP (Septoria nodorum—LEPTNO; rate 62.5 g ai/ha): 95; LEPTNO 3DC (Septoria nodorum—LEPTNO; rate 125 g ai/ha): 71; LEPTNO 7DP (Septoria nodorum—LEPTNO; rate 125 g ai/ha): 98
2 | CNC(=O)C(=NOC)c1ccccc1COc1ncc(-c2snc(C)c2Br)cc1C [Compound 2, 2-[[[3-methyl-5-[5-[4-bromo-3-methylisothiazolyl]]-2-pyridinyl]-oxy]methyl]-alpha-(methoxyimino)-N-methylbenzeneacetamide] | 50 | 100 | 63 | 100 | 93 | 100 | 93 | 100 | 97 | 85 | 83 | 85 | 90 | 96 | 95 | 97 | 65 | 65 | 73 | 79 | LEPTNO 3DC (Septoria nodorum—LEPTNO; rate 62.5 g ai/ha): 47; LEPTNO 7DP (Septoria nodorum—LEPTNO; rate 62.5 g ai/ha): 84; LEPTNO 3DC (Septoria nodorum—LEPTNO; rate 125 g ai/ha): 67; LEPTNO 7DP (Septoria nodorum—LEPTNO; rate 125 g ai/ha): 98
